In the supplement of paper PMC5908809:

Key:
NK-YS (IL-2 2.5 ng/mL) [1] = test: drug sensitivity score (DSS) (DSS units); higher = more sensitive; extreme values may be limits of the assay; conditions: 72 h
KHYG-1 (IL-2 2.5 ng/mL) [2] = test: as above; conditions: 72 h
KAI3 (IL-2 2.5 ng/mL) [3] = test: as above; conditions: 72 h
NKL (IL-2 2.5 ng/mL) [4] = test: as above; conditions: 72 h
DERL-7 (IL-2 2.5 ng/mL) [5] = test: as above; conditions: 72 h
SNK-6 (IL-2 2.5 ng/mL) [6] = test: as above; conditions: 72 h
[7] = test system: normal primary NK cells, pool 1 (3 donors), resting (IL-2 0 ng/mL); test: as above; conditions: 72 h
[8] = test system: normal primary NK cells, pool 1 (3 donors) (IL-2 2.5 ng/mL); test: as above; conditions: 72 h
IMC-1 (IL-2 20 ng/mL) [9] = test: as above; conditions: 72 h
NK-92 (IL-2 2.5 ng/mL) [10] = test: as above; conditions: 72 h
[11] = test system: normal primary NK cells, pool 2 (3 donors) (IL-2 2.5 ng/mL); test: as above; conditions: 72 h
YT (IL-2 2.5 ng/mL) [12] = test: as above; conditions: 72 h
[13] = test system: normal primary NK cells, pool 3 (3 donors) (IL-2 2.5 ng/mL); test: as above; conditions: 72 h
[14] = test system: normal NK cells expanded with K562-aAPC; test: percent inhibition of viability; higher = more inhibition; conditions: 72 h, IL-2 2.5 ng/mL
Method: (§1)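 Drug sensitivity and resistance testing on K562-aAPC-expanded normal NK cells: 5 concentrations (10-fold steps over a 10,000-fold range), 72 h at 37 °C, viability by CellTiter-Glo normalised to DMSO and benzethonium chloride controls; DSS from the fitted curve.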

NK-YS (IL-2 2.5 ng/mL) [15] = test: as above; conditions: 72 h
KHYG-1 (IL-2 2.5 ng/mL) [16] = test: as above; conditions: 72 h
KAI3 (IL-2 2.5 ng/mL) [17] = test: as above; conditions: 72 h
NKL (IL-2 2.5 ng/mL) [18] = test: as above; conditions: 72 h
DERL-7 (IL-2 2.5 ng/mL) [19] = test: as above; conditions: 72 h
SNK-6 (IL-2 2.5 ng/mL) [20] = test: as above; conditions: 72 h
[21] = test system: normal primary NK cells, pool 1 (3 donors), resting (IL-2 0 ng/mL); test: as above; conditions: 72 h
[22] = test system: normal primary NK cells, pool 1 (3 donors) (IL-2 2.5 ng/mL); test: as above; conditions: 72 h
IMC-1 (IL-2 20 ng/mL) [23] = test: as above; conditions: 72 h
NK-92 (IL-2 2.5 ng/mL) [24] = test: as above; conditions: 72 h
[25] = test system: normal primary NK cells, pool 2 (3 donors) (IL-2 2.5 ng/mL); test: as above; conditions: 72 h
YT (IL-2 2.5 ng/mL) [26] = test: as above; conditions: 72 h
[27] = test system: normal primary NK cells, pool 3 (3 donors) (IL-2 2.5 ng/mL); test: as above; conditions: 72 h
[28] = test system: normal NK cells expanded with K562-aAPC; test: drug sensitivity score (DSS) (DSS units); higher = more sensitive; extreme values may be limits of the assay; conditions: 72 h; IL-2 2.5 ng/mL
Method: as §1

N#CC1(c2ccc(NC(=O)c3cccnc3NCc3ccncc3)cc2)CCCC1 [Apatinib] (max concentration tested 10000 nM)
Conditions	drug sensitivity score
DERL-7 (IL-2 2.5 ng/mL) [5]	0
IMC-1 (IL-2 20 ng/mL) [9]	0
KAI3 (IL-2 2.5 ng/mL) [3]	0.17
KHYG-1 (IL-2 2.5 ng/mL) [2]	0.9
NK-92 (IL-2 2.5 ng/mL) [10]	4.58
NK-YS (IL-2 2.5 ng/mL) [1]	0.26
NKL (IL-2 2.5 ng/mL) [4]	0
SNK-6 (IL-2 2.5 ng/mL) [6]	0
YT (IL-2 2.5 ng/mL) [12]	0
[7]	2.45
[8]	0
[11]	0
[13]	0
[28]	0

percent inhibition of viability [%]
Conditions	1 nM	10 nM	100 nM	1000 nM	10000 nM
DERL-7 (IL-2 2.5 ng/mL) [19]	-0.33	-0.49	-2.76	-4.82	1.97
IMC-1 (IL-2 20 ng/mL) [23]	-6.4	-0.28	-6.01	0.8	2.01
KAI3 (IL-2 2.5 ng/mL) [17]	3.83	2.76	6.74	10.3	12.3
KHYG-1 (IL-2 2.5 ng/mL) [16]	4.44	2.43	2.62	6.69	19
NK-92 (IL-2 2.5 ng/mL) [24]	-3.67	-7.24	2.24	10.8	52.7
NK-YS (IL-2 2.5 ng/mL) [15]	-1	2.11	4.05	9.52	12.6
NKL (IL-2 2.5 ng/mL) [18]	-16.2	-14.6	-14.8	-14.5	-12.3
SNK-6 (IL-2 2.5 ng/mL) [20]	21	12.9	7.35	12.6	28.4
YT (IL-2 2.5 ng/mL) [26]	-0.29	0.42	2.63	7.54	7.83
[14]	-1.56	-5.13	-0.99	0.76	2.66
[21]	-2.35	4.05	8.46	11.4	31.2
[22]	-14.6	-10.1	-4.55	-2.69	6.98
[25]	-4.33	-2.31	-5.54	-1.25	-5.6
[27]	-6.46	-8.45	-1.68	-7.82	1.12

CC[C@H](CC#N)OC(=O)N[C@@H](C)c1cccc(NC(=O)Nc2ccc(-c3cnco3)c(OC)c2)c1 [AVN944] (max concentration tested 10000 nM)
Conditions	drug sensitivity score
DERL-7 (IL-2 2.5 ng/mL) [5]	22.3
IMC-1 (IL-2 20 ng/mL) [9]	13.5
KAI3 (IL-2 2.5 ng/mL) [3]	23.1
KHYG-1 (IL-2 2.5 ng/mL) [2]	23.1
NK-92 (IL-2 2.5 ng/mL) [10]	21.5
NK-YS (IL-2 2.5 ng/mL) [1]	22.9
NKL (IL-2 2.5 ng/mL) [4]	19.2
SNK-6 (IL-2 2.5 ng/mL) [6]	24.3
YT (IL-2 2.5 ng/mL) [12]	18.9
[7]	4.7
[8]	2.1
[11]	0.8
[13]	1.47
[28]	9.68

percent inhibition of viability [%]
Conditions	1 nM	10 nM	100 nM	1000 nM	10000 nM
DERL-7 (IL-2 2.5 ng/mL) [19]	1.82	-0.51	46.2	89.3	94.2
IMC-1 (IL-2 20 ng/mL) [23]	-3.38	0.07	-49.7	74.7	93.8
KAI3 (IL-2 2.5 ng/mL) [17]	3.06	5.82	42.7	101	97.7
KHYG-1 (IL-2 2.5 ng/mL) [16]	-0.31	1.95	46.9	96.4	96.2
NK-92 (IL-2 2.5 ng/mL) [24]	-6.77	-7.92	21.9	101	94.4
NK-YS (IL-2 2.5 ng/mL) [15]	1.24	-1.29	45.5	94.6	94
NKL (IL-2 2.5 ng/mL) [18]	-10.6	-12.7	32.8	81.2	72.3
SNK-6 (IL-2 2.5 ng/mL) [20]	6.47	13.1	56.5	91	96.5
YT (IL-2 2.5 ng/mL) [26]	1.64	0.89	25.8	83.2	83.1
[14]	-4.47	-3.33	15.6	41.6	39.1
[21]	-10.3	-2.43	27.4	7.53	62.7
[22]	-6.01	-11.6	1.98	6.68	27.3
[25]	-12.8	-4.58	1.01	5.56	16.6
[27]	-8.77	-6.21	4.2	12.5	18.4

CO[C@H](C(=O)[C@@H](O)[C@@H](C)O)[C@@H]1Cc2cc3cc(O[C@H]4C[C@@H](O[C@@H]5C[C@@H](O)[C@H](O)[C@@H](C)O5)[C@H](O)[C@@H](C)O4)c(C)c(O)c3c(O)c2C(=O)[C@H]1O[C@H]1C[C@@H](O[C@@H]2C[C@@H](O)[C@@H](O[C@@H]3C[C@](C)(O)[C@H](O)[C@@H](C)O3)[C@@H](C)O2)[C@H](O)[C@@H](C)O1 [Plicamycin] (max concentration tested 10000 nM)
Conditions	drug sensitivity score
DERL-7 (IL-2 2.5 ng/mL) [5]	28.2
IMC-1 (IL-2 20 ng/mL) [9]	13.4
KAI3 (IL-2 2.5 ng/mL) [3]	25.2
KHYG-1 (IL-2 2.5 ng/mL) [2]	28.6
NK-92 (IL-2 2.5 ng/mL) [10]	19.7
NK-YS (IL-2 2.5 ng/mL) [1]	31.2
NKL (IL-2 2.5 ng/mL) [4]	29.5
SNK-6 (IL-2 2.5 ng/mL) [6]	34.5
YT (IL-2 2.5 ng/mL) [12]	30.5
[7]	20.4
[8]	22.1
[11]	12.3
[13]	12.1
[28]	7.76

percent inhibition of viability [%]
Conditions	1 nM	10 nM	100 nM	1000 nM	10000 nM
DERL-7 (IL-2 2.5 ng/mL) [19]	0.06	-2.61	86.8	101	101
IMC-1 (IL-2 20 ng/mL) [23]	-2.17	-0.08	-16.4	69.3	100
KAI3 (IL-2 2.5 ng/mL) [17]	-19.1	-16.3	61.1	93.9	106
KHYG-1 (IL-2 2.5 ng/mL) [16]	-6.39	2.63	87.8	106	110
NK-92 (IL-2 2.5 ng/mL) [24]	-10.9	-13.5	17.8	94.4	108
NK-YS (IL-2 2.5 ng/mL) [15]	-4.88	6.73	97.1	106	108
NKL (IL-2 2.5 ng/mL) [18]	-8.9	-9.19	97.5	108	110
SNK-6 (IL-2 2.5 ng/mL) [20]	6.54	44	92.3	98.5	97.8
YT (IL-2 2.5 ng/mL) [26]	-0.6	0.99	99	109	110
[14]	-1.48	0.95	3.45	18.5	86.7
[21]	-24.1	-3.24	28.7	88.3	89.5
[22]	-2.64	-1.48	31	97.5	98.2
[25]	-13	-9.37	5.25	58.7	91.9
[27]	-7.87	-12.9	5.62	56.1	95.4
